{"source": "patent US6051683A", "about": "“Immune regulating peptides and method of obtaining them” (Immunotech Developments Inc., priority 1995, dated 2000)", "key": {"[1]": {"tested_on": "lymphocytes of the guinea pigs", "assay": "E-yield (E-POK) of guinea pig lymphocytes after processing with trypsin", "assay_type": "cell-based", "conditions": "untreated animals 66.5, treated with trypsin 36.1", "experimental": "Biological activity of the new peptide was studied on guinea pigs using recognised testing methods of E-yield of lymphocytes of the guinea pigs subsequent to processing with trypsin.\n*Each concentration was tested on 5 animals. The positive growth differs\nin relation to the control group EPOK is 50% or higher."}, "[2]": {"assay": "Solubility of the peptide", "assay_type": "physicochemical", "excerpt": "The peptide obtained by the above formula has the texture of a white powder, which is soluble in water, not completely soluble in alcohol and non soluble on chloroform.\nSolubility--Soluble in water, non soluble in chloroform."}}, "note": "Peptide text beside a SMILES is read from it.", "data": [{"molecule": "CC[C@H](C)[C@H](N)C(=O)N[C@@H](CCC(=O)O)C(=O)N[C@@H](Cc1c[nH]c2ccccc12)C(=O)O", "note": "[Ile-Glu-Trp, H-Ile-Glu-Trp-OH] (H-Ile-Glu-Trp-OH)", "values": [{"measurement": "QUANTITY E-POK, (%) after treatment with trypsin and compound", "setting": "[1]; compound concentration 10^-6 mg/ml", "result": 61.4, "unit": "%"}, {"measurement": "QUANTITY E-POK, (%) after treatment with trypsin and compound", "setting": "[1]; compound concentration 10^-7 mg/ml", "result": 63.9, "unit": "%"}, {"measurement": "QUANTITY E-POK, (%) after treatment with trypsin and compound", "setting": "[1]; compound concentration 10^-8 mg/ml", "result": 64.8, "unit": "%"}, {"measurement": "QUANTITY E-POK, (%) after treatment with trypsin and compound", "setting": "[1]; compound concentration 10^-9 mg/ml", "result": 60.2, "unit": "%"}, {"measurement": "QUANTITY E-POK, (%) after treatment with trypsin and compound", "setting": "[1]; compound concentration 10^-10 mg/ml", "result": 37.5, "unit": "%"}, {"measurement": "QUANTITY E-POK, (%) after treatment with trypsin and compound", "setting": "[1]; compound concentration 10^-11 mg/ml", "result": 40.0, "unit": "%"}, {"measurement": "QUANTITY E-POK, (%) after treatment with trypsin and compound", "setting": "[1]; compound concentration 10^-12 mg/ml", "result": 34.3, "unit": "%"}, {"measurement": "Solubility in chloroform", "setting": "[2]; chloroform", "result": "non soluble"}, {"measurement": "Solubility in water", "setting": "[2]; water", "result": "Soluble"}]}]}
